The source of these data is patent US10543231B2, “Methods and materials for treating cancer” (Mayo Foundation for Medical Education and Research, priority 2017, dated 2020).

One assay has as its system AsPC-1 cells. The assay is described as follows: In vitro cell viability assay (MTS). It is filed as cell-based. The settings on record: AsPC-1, 1 hour treatment, MTS after 72 hours. As to the method:
About 5×10^3 cells were seeded in 96-well plates and treated with increasing doses of GNP, Gem, and GNP-Gem diluted in respective media. After a 1-hour incubation, cells were washed thrice with PBS, overlaid with 100 μL media containing serum and antibiotics, and incubated for another 72 hours. At the end of the incubation, cell viability was measured using Celltiter 96 Aqueous One Solution Cell Proliferation Assay (Promega) as per the manufacturer's protocol. Briefly, the media containing the treatments were aspirated from the plate and washed with PBS. Then, 100 μL media containing 20 μL One Solution reagent was added to each well. The plate was incubated at 37° C. for 30 minutes, and absorbance at 492 nm was measured using Spectramax i3x. Percentage viability was calculated as follows: Viability (%)=100* (ATreated−ABlank)/(AUntreated−ABlank).
To this end, two commercially available pancreatic cancer cell lines were selected (AsPC-1 and PANC-1, obtained from ATCC). The cells were treated with increasing doses of GNP, Gem, and GNP-Gem for 1 hour. After 1 hour, cells were washed three times with PBS to remove the treatments completely in order to reduce any non-specific effect, and fresh media was added to the cells. The cell viability measurement was performed by MTS assay after 72 hours (FIG. 4A-B).

Assay [1] concerns luciferase-transfected PANC-1 cells. Nature of the assay: Histological study of harvested tumors (H&E, Ki67). It is filed as in vivo, NOD-SCID-Gamma (NSG) mice. How it is done:
(§1) 6-8 weeks old male and female NOD-SCID-Gamma (NSG) mice were obtained from NCI and housed in the institutional animal facilities. About 1×10^6 luciferase-transfected PANC-1 cells suspended in 50 μL PBS were injected orthotopically into the pancreas of the mice. Tumors were allowed to grow for three weeks. Then, mice were randomized into four groups of ten (5 male mice and 5 female mice in each group), and 50 μg/mouse Gem, GNP-Gem with an equivalent Gem amount, or unconjugated GNPs were injected intraperitoneally three times a week for three weeks. Tumor growth was measured weekly using an IVIS bio-imager after injecting Luciferin. After three weeks of treatment, mice were sacrificed, and tumors were harvested, measured with slide calipers, and weighed. Tumor volumes were calculated using the formula: V=0.5 X a X b^2, where ‘a’ is the longest tumor axis, and ‘b’ is the shortest tumor axis.
Tumors were harvested and fixed in neutral buffered 10% formalin at room temperature for 24 hours prior to embedding in paraffin and sectioning. Sections were deparaffinized and then subjected Hematoxylin and Eosin (H&E) and Ki67 staining according to manufacturer's instructions (DAB 150, Millipore). Stable diaminobenzidine was used as a chromogen substrate, and the sections were counterstained with a hematoxylin solution. Slides were digitized with Aperio AT2 slide scanner (Leica) and analyzed with imagescope software (Leica).

The test system is the same in assay [2]. The assay is described as follows: In vivo tumor growth inhibition, orthotopic PANC-1 xenograft. Details: species or system NOD-SCID-Gamma (NSG) mice. The settings on record: after three weeks of treatment. How it is done:
as §1
About, 1×10^6 luciferase transfected PANC-1 cells were orthotopically implanted in the pancreas of 6-8 weeks old NSG mice. After three weeks, mice were imaged noninvasively using the Xenogen instrument to confirm tumor growth and then randomized into four groups before the initiation of treatment. Both male and female mice were included in the experiment to delineate any differential sex-dependent therapeutic effect of GNP-Gem. The experiment was terminated after three weeks of treatment. […] FIG. 5C depicts the tumor growth curve as measured by luciferase bioluminescence for female and male mice separately or in combination.

With `Nc1ccn([C@@H]2O[C@H](CO)[C@@H](O)C2(F)F)c(=O)n1` [Gem, Gemcitabine], the “effect on cell viability” value in the assay on AsPC-1 cells is “dose dependent effect”. In assay [1] (female and male combined), the “percentage of Ki67-positive nuclei, mean” value was determined as 31.4% and the “percentage of Ki67-positive nuclei, median” value (from here on “percentage … median”) is 32.07%. Further, in assay [1] (female mice), the “percentage of Ki67-positive nuclei, mean” value is 31.3% and the “percentage … median” value turned out to be 32.3%. Also, in assay [1] (male mice), the “percentage of Ki67-positive nuclei, mean” value is 31.5% and the “percentage … median” value was 31.4%. In addition, in assay [2] (female and male combined), the “tumor volume, mean” value is recorded as 251 mm^3; the “tumor volume, median” value was 250 mm^3; the “tumor weight, mean” value is 310.86 mg; the “tumor weight, median” value is 280.35 mg. In addition, in assay [2] (female mice), the “tumor volume, mean” value was 254.8 mm^3; the “tumor volume, median” value is 254.6 mm^3; the “tumor weight, mean” value is listed as 295.9 mg; the “tumor weight, median” value is 272.4 mg. In assay [2] (male mice), the “tumor volume, mean” value is 247.17 mm^3; the “tumor volume, median” value worked out at 245.3 mm^3; the “tumor weight, mean” value worked out at 325.8 mg; the “tumor weight, median” value was determined as 288.3 mg.
